{"source": "patent US20250009844A1", "about": "“MATURATION OF MUCOSAL DEFENSE AND GUT/LUNG FUNCTION IN THE PRETERM INFANT” (Novozymes A/S, priority 2017, published 2025)", "type_in_all_cases": "in vivo", "key": {"BALB/c mice [1]": {"system": "BALB/c mice", "assay": "Therapeutic intervention in murine house dust mite/Freund's complete adjuvant driven model of allergic asthma, histopathology and cytokines (Example 7)", "conditions": "for Histological inflammation of lung tissue: vs HDM challenged vehicle", "procedure": "Treatment regime: Female 7-10 weeks old BALB/c mice randomly allocated into 4 study groups one day prior to study start were subcutaneously (SC) sensitized to house dust mite (100 μg HDM in 200 μL saline plus Freund's complete adjuvant in 0.9% saline). Mice were intranasally (IN) challenged with HDM on day 14 (HDM 25 μg in 50 μL of saline). hBD-2 was administered IN or orally (0.4 mg/kg TID IN; 0.4 mg/kg TID orally, 50 μL phosphate buffered saline) on day 14. The initial dose was administered 60 minutes prior to challenge, and the subsequent doses approximately 6 hours apart (FIG. 3, groups 1-4)).\nBlood sampling: All terminal blood samples were collected via jugular vein bleeds. Blood was sampled to Li-heparin tubes, put on ice and immediately centrifuged at 4° C. Plasma was separated and stored at −80° C. until the potential SCFA analysis. Lung tissue sampling: The lungs were exposed and excised by gently opening the thorax and by cutting down either side of the sternum and ribs and trimming back. […]\nCellular influx (mononuclears, eosinophils, neutrophils) was assessed semi-quantitatively on H&E stained slides separately for peri-bronchial/bronchiolar and perivascular space as follows: • 0 absent • 1 few scattered inflammatory cells • 2 larger aggregates • 3 marked accumulation of cells\nOverall score for inflammation was calculated as the sum of all individual scores. Goblet cell metaplasia, separately at a level of large airways and distal airways, was assessed at PAS-stained slides as follows: • 0 no mucus containing cells along basement membrane • 1 few positive cells along basement membrane with less than 75% of the cytoplasm stained • 2 few positive cells along basement membrane with more than 75% of the cytoplasm stained • 3 numerous positive cells along basement membrane with less than 75% of the cytoplasm stained • 4 numerous positive cells along basement membrane with more than 75% of the cytoplasm stained […]"}, "BALB/c mice [2]": {"system": "BALB/c mice", "assay": "Murine model of acute graft versus host disease, oral HD5 (Example 13)", "procedure": "(§1) Treatment regime: 22 female BALB/c mice were irradiated with 4.5 Gy (2×498 sec) at intervals of at least 4 hours on day 0. Bone marrow was harvested: hind limbs harvested from 2 female WT C57BL/6 mice aseptically. Skeletal muscle was removed and epiphysis cut away. Lumen of bone flushed with PBS and cells pelleted and taken up. Harvest of T-cells: spleens from 2 female WT C57BL/6 mice were meshed through a […] cell strainer into a PBS filled dish. Cells were taken up in PBS and transferred into a 50 mL falcon tube and spun down. Cells were taken up in 1 mL PBS and 20 μL of CD4 microbead +20 μL CD8 microbeads per spleen added for incubation for 20 min at 4 degrees C. Cells were washed with PBS and applied to MACS separation in order to positively select CD4+ and CD8+ cells. Positively selected T-cells were counted and taken up. Transplantation: directly after the second irradiation, all WT BALB/c recipient mice were injected with 5×1.000.000 BM cells (50 μL) i.v. into the retroorbital venous plexus under isoflurane anesthesia. 22 BALB/c mice were treated with 1.2 mg of HD5/kg BW/day; 1.2 mg of hBD-2/kg BW/day or 100 μL of PBS per day vial oral gavage from day 0-10.\nSurvival was monitored for 60 days."}, "[3]": {"system": "postnatal day 14 C57BL/6J mice", "assay": "Dithizone/Klebsiella induced necrotizing enterocolitis murine model (Example 9)", "source_text": "FIG. 40. Histological scoring system for evaluation of severity of necrotizing enterocolitis in a murine model of Klebsiella/Dithizone induced necrotizing enterocolitis. >2 indicates significant gut inflammation.\nIncidence of necrotizing enterocolitis and IL-22 concentration in a murine model of necrotizing enterocolitis. Intestinal mucosal injury consistent with human necrotizing enterocolitis was induced by a combination of Dithizone followed by Klebsiella pneumonia challenge by oral gavage in postnatal day 14 C57BL/6J mice. The severity of necrotizing enterocolitis was assessed by a histological scoring system with a score of >2 indicating significant damage (FIG. 40). Neither Dithizone nor K. pneumonia challenge induced mucosal injury by themselves, but the combination of Dithizone followed by K. pneumonia challenge induced severe and statistically significant mucosal damage measured 16 hours post challenge (FIG. 41)."}, "BALB/c mice [4]": {"system": "BALB/c mice", "assay": "Murine model of acute graft versus host disease, oral hBD-2 versus cyclosporine (Example 12)", "procedure": "as §1, with “regime: 20” for “regime: 22”, “anesthesia. 20” for “anesthesia. 22”, “of hBD2/kg BW/day (n=7); 50” for “of HD5/kg BW/day; 1.2”, “mg cyclosporine/kg BW on days 0, 3, 6 and 9 (n=7)” for “mg of hBD-2/kg BW/day”, “100 uL” for “100 μL of”, “gavage (n=6)” for “gavage”\nThe mice were weighed at regular intervals during the study and survival was monitored for 90 days."}}, "note": "Entries after “also recorded” stand apart in the source; their conditions may differ. No end group written: not given here."}
{"substance": "human beta defensin 2 (GIGDPVTCLKSGAICHPVFCPRRYKQIGTCGLPGTKCCKKP; ends and bridges not checked; cysteine pairing not given here; listed as Homo sapiens) [hBD-2]", "values": [{"measurement": "Histological inflammation of lung tissue", "setting": "BALB/c mice [1]; intranasal 0.4 mg/kg TID on day 14", "result": "effectively inhibited the increase in histological inflammation of lung tissue"}, {"measurement": "Histological inflammation of lung tissue", "setting": "BALB/c mice [1]; oral 0.4 mg/kg TID on day 14", "result": "effectively inhibited the increase in histological inflammation of lung tissue"}, {"measurement": "IL-5 level in lung tissue homogenate", "setting": "BALB/c mice [1]; oral administration", "result": "Significant effects"}, {"measurement": "Animals that had died by day 60", "setting": "BALB/c mice [2]; 1.2 mg/kg BW/day oral gavage day 0-10, HD5 group of 8, PBS six out of eight died", "result": "none"}, {"measurement": "Mortality", "setting": "BALB/c mice [2]; 22 mice, oral treatment for 10 days", "result": "significant reduction of mortality"}, {"measurement": "Concentration of IL-22", "setting": "[3]; 1.2 mg/kg one hour post challenge, 9 hours post challenge", "result": "statistically significant gut mucosa protective increase of IL-22; also recorded: statistically significantly increased"}, {"measurement": "Incidence of necrotizing enterocolitis (histological score >2)", "setting": "[3]; oral 1.2 mg/kg one dose one hour post K. pneumonia challenge, 16 hours post challenge", "result": "statistically significant reduction of the incidence of necrotizing enterocolitis; also recorded: dramatically and statistically significantly reduced the incidence of necrotizing enterocolitis to normal"}, {"measurement": "Mortality", "setting": "BALB/c mice [4]; 7 mice oral hBD-2 for 10 days, p=0.03", "result": "statistically significant reduction of mortality"}, {"measurement": "Weight loss following bone marrow transplantation", "setting": "BALB/c mice [4]; compared with the PBS treated mice", "result": "lost statistically significantly less weight"}, {"measurement": "Animals that had died by day 90", "setting": "BALB/c mice [4]; hBD2 1.2 mg/kg BW/day day 0-10 (n=7), cyclosporine 50 mg/kg BW on days 0, 3, 6 and 9 (n=7), PBS n=6, all but one died", "result": 1}]}
